The test system of this assay is IFNα-induced pSTAT5 (pY694) in CD3 positive cells of human whole blood. Put plainly: IFNα-Induced STAT Phosphorylation in Human Whole Blood. Type of assay: cell-based. To be noted: Homo sapiens, 1 h compound incubation, 1000 U/mL recombinant human IFNα A/D for 15 min, pSTAT5 in CD3 positive population, read-out: Human WB IFNα-Induced Stat Phosph. (IC50). Here is the method: IFNα-Induced STAT Phosphorylation in Human Whole Blood
After an hour long incubation with compound, human whole blood (drawn with either EDTA or ACD-A as anti-coagulant) was stimulated with 1000 U/mL recombinant human IFNα A/D (R&D Systems 11200-2) for 15 min. The stimulation was stopped by adding Fix/Lyse buffer (BD 558049). Cells were stained with a CD3 FITC antibody (BD 555916), washed, and permeabilized on ice using Perm III buffer (BD 558050). Cells were then stained with an Alexa-Fluor 647 pSTAT5 (pY694) antibody (BD 612599) for 30 min prior to analysis on the FACS Canto II. The amount of pSTAT5 expression was quantitated by median fluorescence intensity after gating on the CD3 positive population.
IFNα-Induced STAT Phosphorylation in Human Whole Blood Inhibition Data ND—no data available

Each structure is given as a SMILES string. A value given as a limit tells only on which side of the number the result lay.

The results in this text go back to patent US12240840B2, “Amide-substituted heterocyclic compounds for the treatment of conditions related to the modulation of IL-12, IL-23 and/or IFN-alpha” (BRISTOL-MYERS SQUIBB COMPANY, priority 2018, dated 2025).

Regarding `[2H]C([2H])([2H])NC(=O)c1nnc(NC(=O)C2CC2)cc1Nc1cccc(-c2cnn(CCNC(=O)COC)c2)c1OC` [Example 562], the IC50 turned out to be 650 nM. On to `[2H]C([2H])([2H])NC(=O)c1nnc(NC(=O)C2CC2)cc1Nc1cc(F)cc(-c2cc(C(=O)N(C)CC)n(C)n2)c1OC` [Example 505], for which the IC50 was found to be 180 nM. For `[2H]C([2H])([2H])NC(=O)c1nnc(NC(=O)C2CC2)cc1Nc1cccc(-c2noc([C@H](C)O)n2)c1OC` [Example 84] the value was 130 nM; for `[2H]C([2H])([2H])NC(=O)c1nnc(NC(=O)C2CC2)cc1Nc1cccc(-c2nc(C)c(C(=O)NCC3CCN(C)C3)s2)c1OC` (centres unmarked) [Example 368], 350 nM; for `[2H]C([2H])([2H])NC(=O)c1cnc(NC(=O)C2CC2)cc1Nc1cccc(-c2cnn(CCNC(=O)C(C)(C)O)n2)c1OC` [Example 443], 270 nM.

Consider `[2H]C([2H])([2H])NC(=O)c1cnc(NC(=O)C2CC2)cc1Nc1cc(F)cc(-c2csc(C(=O)NCCOC)n2)c1OC` [Example 574], for which the IC50 was found to be 700 nM. For `[2H]C([2H])([2H])NC(=O)c1nnc(NC(=O)C2CC2)cc1Nc1cccc(-c2nc(CN)no2)c1OC` [Example 143], the IC50 came out at 320 nM.

As for `[2H]C([2H])([2H])NC(=O)c1cnc(NC(=O)C2CC2)cc1Nc1cccc(-c2cnn(CCNC(=O)CC#N)n2)c1OC` [Example 440], the IC50 was 1160 nM.

On to `[2H]C([2H])([2H])NC(=O)c1nnc(NC(=O)C2CC2)cc1Nc1cccc(-c2ncc(C(=O)N3CCOCC3)s2)c1OC` [Example 268], for which the IC50 came to 100 nM.

With `[2H]C([2H])([2H])NC(=O)c1nnc(NC(=O)C2CC2)cc1Nc1cccc(-c2nc(C)c(C(=O)N3CCC(N4CCN(CCO)CC4)CC3)s2)c1OC` [Example 359], the IC50 came out at 340 nM. Turning to `[2H]C([2H])([2H])NC(=O)c1cnc(NC(=O)C2CC2)cc1Nc1cccc(-c2cc(C(=O)N3CCS(=O)(=O)CC3)n(C)n2)c1OC` [Example 488], the IC50 was found to be 530 nM. On to `[2H]C([2H])([2H])NC(=O)c1cnc(Nc2cc(C(C)(C)O)ccn2)cc1Nc1cc(F)cc(-c2cnn(C)n2)c1OC` [Example 454], for which the IC50 amounted to 190 nM. As to `[2H]C([2H])([2H])NC(=O)c1nnc(NC(=O)C2CC2)cc1Nc1cc(F)cc(-c2cc(C(C)(C)O)n(C)n2)c1OC` [Example 489], the IC50 is 290 nM. For the compound `[2H]C([2H])([2H])NC(=O)c1nnc(NC(=O)C2CC2)cc1Nc1cccc(-c2nc(CN3CCC(O)CC3)no2)c1OC` [Example 207], the IC50 was found to be 480 nM. For `[2H]C([2H])([2H])NC(=O)c1nnc(NC(=O)C2CC2)cc1Nc1cccc(-c2nc(C)c(C(=O)N3CCC3)s2)c1OC` [Example 358] the value was 210 nM; for `[2H]C([2H])([2H])NC(=O)c1nnc(NC(=O)C2CC2)cc1Nc1cccc(-c2ncc(C(=O)N3CCC3)s2)c1OC` [Example 313], 70 nM; for `[2H]C([2H])([2H])NC(=O)c1nnc(NC(=O)C2CC2)cc1Nc1cccc(-c2ccn(CC(=O)NCCOC)n2)c1OC` [Example 471], 1590 nM. As to `[2H]C([2H])([2H])NC(=O)c1cnc(NC(=O)C2CC2)cc1Nc1cccc(-c2noc(COCC)n2)c1OC` [Example 91], the IC50 came to 50 nM.

With `[2H]C([2H])([2H])NC(=O)c1cnc(Nc2ccc(OC)nn2)cc1Nc1cc(F)cc(-c2cnn(C)n2)c1OC` [Example 452], the IC50 was 150 nM.

With `[2H]C([2H])([2H])NC(=O)c1nnc(NC(=O)C2CC2)cc1Nc1cccc(-c2noc([C@@H](C)O)n2)c1OC` [Example 85], the IC50 came to 240 nM. As for `[2H]C([2H])([2H])NC(=O)c1nnc(NC(=O)C2CC2)cc1Nc1cccc(-c2noc(CN3CCCCS3(=O)=O)n2)c1OC` [Example 12], the figure is 11 nM; as for `[2H]C([2H])([2H])NC(=O)c1cnc(NC(=O)C2CC2)cc1Nc1cccc(-c2nc(C(C)(C)O)no2)c1OC` [Example 218], 390 nM; as for `[2H]C([2H])([2H])NC(=O)c1nnc(NC(=O)C2CC2)cc1Nc1cccc(-c2nc([C@@H](C)NC(=O)OC)no2)c1OC` [Example 192], 870 nM. As for `[2H]C([2H])([2H])NC(=O)c1nnc(NC(=O)C2CC2)cc1Nc1cccc(-n2cc(CN3CCS(=O)(=O)CC3)nn2)c1OC` [Example 1, 6-(cyclopropanecarboxamido)-4-((3-(4-((1,1-dioxidothiomorpholino)methyl)-1H-1,2,3-triazol-1-yl)-2-methoxyphenyl)amino)-N-(trideuteromethyl)pyridazine-3-carboxamide], the IC50 turned out to be 2800 nM. As for `[2H]C([2H])([2H])NC(=O)c1nnc(NC(=O)C2CC2)cc1Nc1cccc(-c2ncc(C(=O)N3C4CCC3CN(C)C4)s2)c1OC` [Example 288], the figure is 90 nM; as for `[2H]C([2H])([2H])NC(=O)c1nnc(NC(=O)C2CC2)cc1Nc1cccc(-c2ncc(CC(=O)N3CCS(=O)(=O)CC3)s2)c1OC` [Example 250], 640 nM. For the compound `COc1c(Nc2cc(NC(=O)C3CC3)nnc2C(N)=O)cccc1-c1noc([C@@H](C)NS(C)(=O)=O)n1` [Example 47], the IC50 stood at 140 nM. For `[2H]C([2H])([2H])NC(=O)c1nnc(NC(=O)C2CC2)cc1Nc1cccc(-c2nc(C)c(C(=O)N3CCC(CCN4CCCC4)CC3)s2)c1OC` [Example 371] the value was 310 nM; for `COCCN1CCN(Cc2cnc(-c3cccc(Nc4cc(NC(=O)C5CC5)nnc4C(N)=O)c3OC)s2)CC1` [Example 399], 180 nM.

For the compound `[2H]C([2H])([2H])NC(=O)c1nnc(NC(=O)C2CC2)cc1Nc1cccc(-c2ncc(C(=O)NCCOC)s2)c1OC` [Example 271], the IC50 was 90 nM. With `COc1c(Nc2cc(NC(=O)C3CC3)nnc2C(N)=O)cccc1-c1noc([C@H](C)NS(C)(=O)=O)n1` [Example 46], the IC50 was found to be 140 nM.

`[2H]C([2H])([2H])NC(=O)c1nnc(NC(=O)C2CC2)cc1Nc1cccc(-c2cc(C(=O)N3CCS(=O)(=O)CC3)n(C)n2)c1OC` [Example 455, 6-(cyclopropanecarboxamido)-4-((3-(5-(1,1-dioxidothiomorpholine-4-carbonyl)-1-methyl-1H-pyrazol-3-yl)-2-methoxyphenyl)amino)-N-(methyl-d3)pyridazine-3-carboxamide]: the IC50 amounted to 560 nM. Consider `[2H]C([2H])([2H])NC(=O)c1nnc(NC(=O)C2CC2)cc1Nc1cccc(-c2nc(CCO)no2)c1OC` [Example 225], for which the half-inhibitory concentration (IC50) was determined as 350 nM. Turning to `[2H]C([2H])([2H])NC(=O)c1nnc(NC(=O)C2CC2)cc1Nc1cccc(-c2ncc(C(C)O)s2)c1OC` (centres unmarked) [Example 258], the IC50 turned out to be 130 nM. Consider `[2H]C([2H])([2H])NC(=O)c1nnc(Nc2ccc(OC)nn2)cc1Nc1cccc(-c2ncc(CN)s2)c1OC` [Example 389], for which the IC50 is 570 nM. With `[2H]C([2H])([2H])NC(=O)c1nnc(NC(=O)C2CC2)cc1Nc1cccc(-c2ncc(C(=O)N3CCNC(=O)C3)s2)c1OC` [Example 312], the IC50 stood at 70 nM. As for `[2H]C([2H])([2H])NC(=O)c1nnc(NC(=O)C2CC2)cc1Nc1cccc(-c2ncc(C(=O)N3CCC[C@H]3CO)s2)c1OC` [Example 302], the figure is 110 nM; as for `[2H]C([2H])([2H])NC(=O)c1nnc(NC(=O)C2CC2)cc1Nc1cccc(-c2ccn(CCNC(C)=O)n2)c1OC` [Example 468], 270 nM; as for `[2H]C([2H])([2H])NC(=O)c1nnc(NC(=O)C2CC2)cc1Nc1cccc(-c2cnn(CCNC(C)=O)n2)c1OC` [Example 432], 300 nM. In the case of `[2H]C([2H])([2H])NC(=O)c1nnc(NC(=O)C2CC2)cc1Nc1cccc(-c2nc(C)c(C(=O)N3C[C@@H](C)O[C@@H](C)C3)s2)c1OC` [Example 362], the IC50 turned out to be 270 nM. For `[2H]C([2H])([2H])NC(=O)c1cnc(NC(=O)C2CC2)cc1Nc1cccc(-c2noc(COC(C)C)n2)c1OC` [Example 89] the value was 30 nM; for `[2H]C([2H])([2H])NC(=O)c1cnc(NC(=O)C2CC2)cc1Nc1cccc(-c2nc(CCOC(C)(C)C)no2)c1OC` [Example 227], 620 nM; for `[2H]C([2H])([2H])NC(=O)c1nnc(NC(=O)C2CC2)cc1Nc1cccc(-c2nc(C)c(C(=O)N3CCN(C(C)C)CC3)s2)c1OC` [Example 369], 50 nM. For the compound `COc1c(Nc2cc(NC(=O)C3CC3)nnc2C(N)=O)cccc1-c1ncc(C(=O)N2CCC(O)CC2)o1` [Example 419], the IC50 amounted to 200 nM. For `COc1c(Nc2cc(NC(=O)C3CC3)nnc2C(N)=O)cccc1-c1ncc(C(=O)N2CCCCC2)s1` [Example 403], the IC50 came to 190 nM. Regarding `[2H]C([2H])([2H])NC(=O)c1nnc(NC(=O)C2CC2)cc1Nc1cccc(-c2nc(/C=C/c3ccccc3)no2)c1OC` [Example 236], the IC50 was above 10000 nM. As to `[2H]C([2H])([2H])NC(=O)c1nnc(NC(=O)C2CC2)cc1Nc1cccc(-c2cc(C(=O)N3CCC(N(C)C)CC3)n(C)n2)c1OC` [Example 529], the IC50 was determined as 200 nM. As for `[2H]C([2H])([2H])NC(=O)c1nnc(NC(=O)C2CC2)cc1Nc1cccc(-c2ncc(CC(=O)N3CCOCC3)s2)c1OC` [Example 253], the IC50 is 300 nM. With `COc1c(Nc2cc(N)nnc2C(N)=O)cccc1-c1noc(CN2CCN(S(C)(=O)=O)CC2)n1` [Example 109], the IC50 is above 10000 nM. On to `[2H]C([2H])([2H])NC(=O)c1nnc(Nc2ccc(OC)nn2)cc1Nc1cccc(-c2ncc(CNC(=O)OC(C)(C)C)s2)c1OC` [Example 388], for which the half-inhibitory concentration (IC50) was above 10000 nM.
